Tests used:
[1] = tested on: RKO (RKOp27) human colon adenocarcinoma cells; experiment: Alamar Blue cell viability assay, anti-proliferative/cytotoxic activity on proliferating RKO subclones; format: cell-based; conditions: RKOp27, 72 h, RKO p27 uninduced (proliferating) cells, value = class bound given in Table A, read-out: −logIC50 RKO p27 uninduced (proliferating) (converted)
How it was run: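 RKOp27 subclones (5000 cells/well) were exposed 24 h after seeding to semi-log compound dilutions in DMEM with 10% FCS, in quadruplicate, for 72 h at 37 °C. Viability was read by Alamar Blue fluorescence (544/590 nm) relative to untreated cells (1% DMSO medium). IC50 came from concentration-effect curves and is reported as −log IC50 [mol/l].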

[2] = tested on: subclones of RKO colon adenocarcinoma cells (RKOp27 or RKOp21) arrested by Ponasterone A; experiment: Alamar Blue cell viability assay, cell cycle specific mode of action: cells arrested by ectopic p27Kip1 induced by Ponasterone A versus proliferating cells; format: cell-based; conditions: Homo sapiens, RKO p27 induced (arrested) cells, 10 μM Ponasterone A, 72 hours, value = class bound given in Table A, read-out: −logIC50 RKO p27 induced (arrested) (converted)
How it was run: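 RKOp27 or RKOp21 cells, 15000/well in DMEM/10% FCS, either arrested by p27Kip1 induced with 10 μM Ponasterone A or proliferating without inducer; compound added after 24 h, 72 h at 37° C. Alamar Blue fluorescence (544/590 nm), viability as % of untreated cells; −log IC50 reported.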

| IC50 [2] [nM] | Structure (SMILES) | IC50 [1] [nM] |
| --- | --- | --- |
| ≥ 100000 | Cc1cc(CNC(=O)OCC2CCc3c(sc(NC(=O)CCc4cccnc4)c3C#N)C2)on1 (stereo not drawn) [Example 257, (3-Methyl-isoxazol-5-ylmethyl)-carbamic acid 3-cyano-2-(3-pyridin-3-yl-propanoylamino)-4,5,6,7-tetrahydro-benzo[b]thiophen-6-ylmethyl ester] | 501 to 2000 |
| ≥ 100000 | N#Cc1c(NC(=O)/C=C/c2cccnc2)sc2c1CCC(OC(=O)NC1CC1)C2 (stereo not drawn) [Example 21, Cyclopropyl-carbamic acid 3-cyano-2-((E)-3-pyridin-3-yl-allanoylamino)-4,5,6,7-tetrahydro-benzo[b]thiophen-6-yl ester] | ≤ 501 |
| ≥ 50100 | CC(CC(=O)Nc1sc2c(c1C#N)CCC(OC(=O)NCc1cccn1C)C2)c1ccccc1 (stereo not drawn) [Example 300, (1-Methyl-1H-pyrrol-2-ylmethyl)-carbamic acid 3-cyano-2-(3-phenyl-butanoylamino)-4,5,6,7-tetrahydro-benzo[b] thiophen-6-yl ester] | ≤ 501 |
| ≥ 100000 | Cc1nocc1CNC(=O)OC1CCc2c(sc(NC(=O)CC(C)c3cccnc3)c2C#N)C1 (stereo not drawn) [Example 355, (3-Methyl-isoxazol-4-ylmethyl)-carbamic acid 3-cyano-2-(3-pyridin-3-yl-butanoylamino)-4,5,6,7-tetrahydro-benzo[b] thiophen-6-yl ester] | 501 to 2000 |
| ≥ 50100 | Cc1cc(CNC(=O)OC2CCc3c(sc(NC(=O)CC(C)c4ccccc4)c3C#N)C2)no1 (stereo not drawn) [Example 295, (5-Methyl-isoxazol-3-ylmethyl)-carbamic acid 3-cyano-2-(3-phenyl-butanoylamino)-4,5,6,7-tetrahydro-benzo[b] thiophen-6-yl ester] | ≤ 501 |
| ≥ 10000 | CCNC(=O)OC1CCc2c(sc(NC(=O)/C=C/c3ccccc3OCC)c2C#N)C1 (stereo not drawn) [Example 5, Ethyl-carbamic acid 3-cyano-2-[(E)-3-(2-ethoxy-phenyl)-allanoylamino]-4,5,6,7-tetrahydro-benzo[b]thiophen-6-yl ester] | ≤ 501 |
| ≥ 100000 | N#Cc1c(NC(=O)/C=C/c2cccnc2)sc2c1CCC(COC(=O)N1CCCO1)C2 (stereo not drawn) [Example 116, Isoxazolidine-2-carboxylic acid 3-cyano-2-((E)-3-pyridin-3-yl-allanoylamino)-4,5,6,7-tetrahydro-benzo[b]thiophen-6-ylmethyl ester] | ≤ 501 |
| ≥ 100000 | Cc1cc(CNC(=O)OC2CCc3c(sc(NC(=O)/C=C/c4cccnc4)c3C#N)C2)n(C)n1 (stereo not drawn) [Example 95, (2,5-Dimethyl-2H-pyrazol-3-ylmethyl)-carbamic acid 3-cyano-2-((E)-3-pyridin-3-yl-allanoylamino)-4,5,6,7-tetrahydro-benzo[b]thiophen-6-yl ester] | ≤ 501 |
| ≥ 100000 | COc1cccc(CCC(=O)Nc2sc3c(c2C#N)CCC(OC(=O)N2CCOCC2)C3)c1 (stereo not drawn) [Example 231, Morpholine-4-carboxylic acid 3-cyano-2-[3-(3-methoxy-phenyl)-propanoylamino]-4,5,6,7-tetrahydro-benzo[b]thiophen-6-yl ester] | ≤ 501 |
| ≥ 100000 | COc1cccc(C(C)CC(=O)Nc2sc3c(c2C#N)CCC(OC(=O)NC2CCOCC2)C3)c1 (stereo not drawn) [Example 271, (Tetrahydro-pyran-4-yl)-carbamic acid 3-cyano-2-[3-(3-methoxy-phenyl)-butanoylamino]-4,5,6,7-tetrahydro-benzo[b] thiophen-6-yl ester] | 501 to 2000 |
| ≥ 100000 | CCOC(=O)OC1CCc2c(sc(NC(=O)CCc3ccccc3OCC)c2C#N)C1 (stereo not drawn) [Example 152, Carbonic acid 3-cyano-2-[3-(2-ethoxy-phenyl)-propanoylamino]-4,5,6,7-tetrahydro-benzo[b]thiophen-6-yl ester ethyl ester] | ≤ 501 |
| ≥ 100000 | CCOc1ccccc1CCC(=O)Nc1sc2c(c1C#N)CCC(COC(=O)NCc1cc(C)on1)C2 (stereo not drawn) [Example 182, (5-Methyl-isoxazol-3-ylmethyl)-carbamic acid 3-cyano-2-[3-(2-ethoxy-phenyl)-propanoylamino]-4,5,6,7-tetrahydro-benzo[b]thiophen-6-ylmethyl ester] | ≤ 501 |
| ≥ 100000 | N#Cc1c(NC(=O)/C=C/c2cccnc2)sc2c1CC[C@@H](COC(=O)N1CCC[C@@H](O)C1)C2 [Example 87a, (R)-3-Hydroxy-piperidine-1-carboxylic acid (R)-3-cyano-2-((E)-3-pyridin-3-yl-allanoylamino)-4,5,6,7-tetrahydro-benzo[b]thiophen-6-ylmethylester] | ≤ 501 |
| ≥ 100000 | COc1cccc(CCC(=O)Nc2sc3c(c2C#N)CCC(OC(=O)NCc2cn(C)cn2)C3)c1 (stereo not drawn) [Example 222, (1-Methyl-1H-imidazol-4-ylmethyl)-carbamic acid 3-cyano-2-[3-(3-methoxy-phenyl)-propanoylamino]-4,5,6,7-tetrahydro-benzo[b]thiophen-6-yl ester] | 501 to 2000 |
| ≥ 100000 | Cn1cccc1CNC(=O)OCC1CCc2c(sc(NC(=O)/C=C/c3cccnc3)c2C#N)C1 (stereo not drawn) [Example 51, (1-Methyl-1H-pyrrol-2-ylmethyl)-carbamic acid 3-cyano-2-((E)-3-pyridin-3-yl-allanoylamino)-4,5,6,7-tetrahydro-benzo[b]thiophen-6-ylmethyl ester] | 501 to 2000 |
| ≥ 100000 | CCOc1ccccc1CCC(=O)Nc1sc2c(c1C#N)CCC(OC(=O)NCc1ccccc1)C2 (stereo not drawn) [Example 155, Benzyl-carbamic acid 3-cyano-2-[3-(2-ethoxy-phenyl)-propanoylamino]-4,5,6,7-tetrahydro-benzo[b]thiophen-6-yl ester] | ≤ 501 |
| ≥ 100000 | COc1cccc(CCC(=O)Nc2sc3c(c2C#N)CCC(OC(=O)NC2CC2)C3)c1 (stereo not drawn) [Example 249, Cyclopropyl-carbamic acid 3-cyano-2-[3-(3-methoxy-phenyl)-propanoylamino]-4,5,6,7-tetrahydro-benzo[b]thiophen-6-yl ester] | ≤ 501 |
| ≥ 100000 | Cc1nocc1CNC(=O)OC1CCc2c(sc(NC(=O)CC(C)c3ccccc3)c2C#N)C1 (stereo not drawn) [Example 359, (3-Methyl-isoxazol-4-ylmethyl)-carbamic acid 3-cyano-2-(3-phenyl-butanoylamino)-4,5,6,7-tetrahydro-benzo[b] thiophen-6-yl ester] | ≤ 501 |
| ≥ 100000 | N#Cc1c(NC(=O)/C=C/c2cccnc2)sc2c1CCC(COC(=O)N1CC(O)C1)C2 (stereo not drawn) [Example 73, 3-Hydroxy-azetidine-1-carboxylic acid 3-cyano-2-((E)-3-pyridin-3-yl-allanoylamino)-4,5,6,7-tetrahydro-benzo[b]thiophen-6-ylmethyl ester] | ≤ 501 |
| ≥ 100000 | N#Cc1c(NC(=O)/C=C/c2cccnc2)sc2c1CCC(COC(=O)NC1CC1)C2 (stereo not drawn) [Example 99, Cyclopropyl-carbamic acid 3-cyano-2-((E)-3-pyridin-3-yl-allanoylamino)-4,5,6,7-tetrahydro-benzo[b]thiophen-6-ylmethyl ester] | ≤ 501 |
| ≥ 100000 | Cc1oncc1CNC(=O)OC1CCc2c(sc(NC(=O)/C=C/c3cccnc3)c2C#N)C1 (stereo not drawn) [Example 58, (5-Methyl-isoxazol-4-ylmethyl)-carbamic acid 3-cyano-2-((E)-3-pyridin-3-yl-allanoylamino)-4,5,6,7-tetrahydro-benzo[b]thiophen-6-yl ester] | 501 to 2000 |
